For 3 molecules, Neutrophil adhesion inhibition and IC50 results are on record in patent publication US20230150951A1, “2,5- OR 2,6-DISUBSTITUTED HYDROQUINONE DERIVATIVES WITH AT LEAST ONE CARBOXY, SULFO OR AMIDO GROUP USEFUL AS MEDICAMENTS” (OM PHARMA SA, priority 2020, published 2023).

In general, pIC50 refers to the negative decadic logarithm of the IC50, by convention in mol/L.

Format in all cases: cell-based
Experiment [1] deals with Human neutrophils. Put plainly: Neutrophil adhesion under static conditions. To be noted: fMLP-stimulated adhesion to fibrinogen; method: 40 μM and 80 μM, concentration of the value not stated. An outline of the steps:
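Donor buffy-coat neutrophils (3×10^6/ml, PBS with Ca/Mg, 10% FCS, pH 7.2) preincubated 30 min at 37° C with 40 μM or 80 μM compound, then stimulated 1 min at 37° C with 1 nM fMLP on fibrinogen-coated glass. Adherent cells fixed and counted by computer; mean ± SD, unpaired t-test.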

Experiment [2] concerns IL-1beta. The experiment can be described thus: Cytokine release after LPS induction on human whole blood: IL-1β. An outline of the steps: (§1)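 In this whole-blood inhibition assay, compounds at final 0.1–100 µM were added 1 h ahead of an 18 h LPS challenge (O111:B4, 10 ng/ml final) at 37 °C. IC50s (µM) came from bead-based multiplex quantification on an Attune-type flow cytometer using standards.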

Experiment [3] deals with IL-2. The experiment can be described thus: Cytokine release after LPS induction on human whole blood: IL-2. The essentials:
as §1

The test system of experiment [4] is IL-6. Put plainly: Cytokine release after LPS induction on human whole blood: IL-6. The essentials: (§2)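 Blood drawn from one donor into heparin is diluted 1:5 with RPMI and, within 30 min, treated with compound at seven concentrations from 100 to 0.1 µM for 1 h. LPS (10 ng/ml final) is then added for 18 h at 37 °C, and cytokines are measured by flow-cytometric multiplex.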

Experiment [5] has as its system IL-9. Put plainly: Cytokine release after LPS induction on human whole blood: IL-9. The essentials:
as §2

Experiment [6] has as its system IL-12p70. Put plainly: Cytokine release after LPS induction on human whole blood: IL-12p70.
For experiment [7], the system named is IL-13. The experiment can be described thus: Cytokine release after LPS induction on human whole blood: IL-13. The essentials: as §1
Experiment [8] has as its system IL-17A. Put plainly: Cytokine release after LPS induction on human whole blood: IL-17A. An outline of the steps:
as §2

Experiment [9] has as its system IL-18. Put plainly: Cytokine release after LPS induction on human whole blood: IL-18. An outline of the steps:
as §1

In experiment [10] the test system is IL-33. Put plainly: Cytokine release after LPS induction on human whole blood: IL-33. An outline of the steps:
as §1

The subject of experiment [11] is TNF-beta. The experiment can be described thus: Cytokine release after LPS induction on human whole blood: TNFβ. The essentials:
as §2

Setting [12] is: Homo sapiens, LPS 10 ng/ml, 18 h, read-out: Whole Blood: IL-1β IC50.
Where [13] appears, read: human whole blood, inhibition of LPS induced inflammation, read-out: IC50 IL-1b.
Where [14] appears, read: Homo sapiens, LPS 10 ng/ml, 18 h, read-out: Whole Blood: IL-2 IC50.
Setting [15] is: human whole blood, inhibition of LPS induced inflammation, read-out: IC50 IL-2.
The mark [16] stands for this setting: Homo sapiens, LPS 10 ng/ml, 18 h, read-out: Whole Blood: IL-6 IC50.
Setting [17] is: human whole blood, inhibition of LPS induced inflammation, read-out: IC50 IL-6.
Where [18] appears, read: Homo sapiens, LPS 10 ng/ml, 18 h, read-out: Whole Blood: IL-9 IC50.
[19] abbreviates: human whole blood, inhibition of LPS induced inflammation, read-out: IC50 IL-9.
Where [20] appears, read: Homo sapiens, LPS 10 ng/ml, 18 h, read-out: Whole Blood: IL-12p70 IC50.
The mark [21] stands for this setting: human whole blood, inhibition of LPS induced inflammation, read-out: IC50 IL-12p70.
The mark [22] stands for this setting: Homo sapiens, LPS 10 ng/ml, 18 h, read-out: Whole Blood: IL-13 IC50.
[23] abbreviates: human whole blood, inhibition of LPS induced inflammation, read-out: IC50 IL-13.
Setting [24] is: Homo sapiens, LPS 10 ng/ml, 18 h, read-out: Whole Blood: IL-17A IC50.
The mark [25] stands for this setting: human whole blood, inhibition of LPS induced inflammation, read-out: IC50 IL-17A.
Where [26] appears, read: Homo sapiens, LPS 10 ng/ml, 18 h, read-out: Whole Blood: IL-18 IC50.
Where [27] appears, read: human whole blood, inhibition of LPS induced inflammation, read-out: IC50 IL-18.
[28] abbreviates: Homo sapiens, LPS 10 ng/ml, 18 h, read-out: Whole Blood: IL-33 IC50.
[29] abbreviates: human whole blood, inhibition of LPS induced inflammation, read-out: IC50 IL-33.
[30] abbreviates: Homo sapiens, LPS 10 ng/ml, 18 h, read-out: Whole Blood: TNF β IC50.
The mark [31] stands for this setting: human whole blood, inhibition of LPS induced inflammation, read-out: IC50 β.

pIC50: −log10 of the molar value. Where two headings read alike, the source gives them in different places.

In [1], `O=C(O)Cc1cc(O)c(C(=O)Nc2c(C(=O)O)cccc2C(=O)O)cc1O` [IIIa-013a, 2-(4-(carboxymethyl)-2,5-dihydroxybenzamido)isophthalic acid] showed a Neutrophil adhesion inhibition of 30.667%. For the same molecule, the pIC50 in [2] (setting [12]) is less than 4.00; in experiment [2] (setting [13]) it was 4.00; in [3] (setting [14]) it was 4.24; in experiment [3] (setting [15]), 4.24; in experiment [4] (setting [16]), 5.45; in experiment [4] (setting [17]), 5.45. In addition, the pIC50 in [5] (setting [18]) was 4.92; in [5] (setting [19]), 4.92; in experiment [6] (setting [20]), 6.30; in [6] (setting [21]), 6.30; in [7] (setting [22]), 6.43; in experiment [7] (setting [23]), 6.43. Further, the pIC50 in experiment [8] (setting [24]) was 6.82; in [8] (setting [25]), 6.82; in experiment [9] (setting [26]), less than 4.00; in experiment [9] (setting [27]), 4.00; in experiment [10] (setting [28]), 5.95; in experiment [10] (setting [29]), 5.95. Further, the pIC50 in experiment [11] (setting [30]) and in experiment [11] (setting [31]) was 6.05 in each case.

For the molecule `CCOC(=O)c1cc(NC(=O)c2cc(O)c(C(=O)OCC)cc2O)cc(NC(=O)c2cc(O)c(C(=O)OCC)cc2O)c1` [Ib-010a-E3, ethyl 3,5-bis(2,5-dihydroxy-4-ethoxycarbonylbenzoylamino)benzoate], the Neutrophil adhesion inhibition in experiment [1] is 79.5%. For the same molecule, the pIC50 in experiment [2] (setting [12]) was less than 4.00; in experiment [2] (setting [13]), 4.00; in experiment [3] (setting [14]) it was 4.44; in experiment [3] (setting [15]), 4.44; in experiment [4] (setting [16]), 6.62; in experiment [4] (setting [17]), 6.62. The pIC50 was 4.57 in experiment [5] (setting [18]); 4.57 in [5] (setting [19]); 6.08 in [6] (setting [20]); 6.08 in experiment [6] (setting [21]); 4.48 in experiment [7] (setting [22]); 4.48 in [7] (setting [23]). Also, the negative-log IC50 (pIC50) in [8] (setting [24]) is 6.28; in experiment [8] (setting [25]), 6.28; in experiment [9] (setting [26]), less than 4.00; in experiment [9] (setting [27]) it was 4.00; in [10] (setting [28]), 4.70; in [10] (setting [29]), 4.70. Besides, the pIC50 in experiment [11] (setting [30]) and in [11] (setting [31]) was 4.42 in each case.

Regarding `O=C(O)c1cc(NC(=O)c2cc(O)c(C(=O)O)cc2O)cc(C(=O)O)c1` [Ia-015a, 5-(4-carboxy-2,5-dihydroxybenzamido)isophthalic acid], the Neutrophil adhesion inhibition in experiment [1] was found to be 17.38%. The pIC50 in [2] (setting [12]) was less than 4.00; in [2] (setting [13]), 4.00; in experiment [3] (setting [14]), 5.15; in experiment [3] (setting [15]), 5.15; in [4] (setting [16]), 6.11; in [4] (setting [17]) it was 6.11. The pIC50 in experiment [5] (setting [18]) is 5.83; in [5] (setting [19]) it was 5.83; in [6] (setting [20]), 6.92; in [6] (setting [21]), 6.92; in [7] (setting [22]), 6.82; in [7] (setting [23]) it was 6.82. Further, the pIC50 in experiment [8] (setting [24]) is 7.30; in [8] (setting [25]), 7.30; in experiment [9] (setting [26]), less than 4.00; in [9] (setting [27]), 4.00; in experiment [10] (setting [28]), 6.62; in experiment [10] (setting [29]), 6.62. Moreover, the pIC50 in experiment [11] (setting [30]) and in experiment [11] (setting [31]) was 6.52 each time.
